Consider one compound from patent publication US20250051285A1, “C[…] FORM OF EP4 ANTAGONIST” (Eisai R&D Management Co., Ltd., priority 2021, published 2025).

In general, pKa refers to the pH at which an ionisable group is half protonated. A higher pKa goes with a group that holds its proton tightly.

Format in all cases: physicochemical
Data set [1] can be described thus: Dissociation constant (pKa) by capillary electrophoresis. The note with it: capillary electrophoresis (CE), buffer solution I = 0.05, 25° C.
Data set [2] can be described thus: Solubility in aqueous solutions.
Data set [3] in a line: Solubility in organic solvents and water.
Data set [4] in a line: Hygroscopicity by dynamic vapor sorption (DVS). The protocol: Hygroscopicity of crystalline free acid form of Compound 1 was measured using the dynamic vapor sorption (DVS) method.

The compound `C[C@H](NC(=O)c1c(C(F)F)nn(C)c1Oc1cccc(C(F)(F)F)c1)c1ccc(C(=O)O)cc1` [Compound 1, (S)-4-(1-(3-(difluoromethyl)-1-methyl-5-(3-(trifluoromethyl)phenoxy)-1H-pyrazole-4-carboxamido)ethyl)benzoic acid] showed a pKa in data set [1] of 4.1. In addition, the “Solubility in 0.1N HCl” value in data set [2] (0.1N HCl) is 0.3, pH 9) and practically insoluble in 0.1N HCl and. Besides, in data set [2] (Britton-Robinson buffer, I = 0.3, pH 9), the “Solubility in Britton-Robinson buffer pH 9” value is on record as “Very slightly soluble in Britton-Robinson buffer (I =”. Also, in data set [3] (2-propanol), the “Solubility in 2-propanol” value was “ethanol and ethyl acetate, slightly soluble in 2-”. Besides, the Solubility in acetonitrile entry in data set [3] (acetonitrile) is “soluble”. Besides, the Solubility in ethanol entry in data set [3] (ethanol) is recorded as “sparingly soluble”. Also, the “Solubility in ethyl acetate” value in data set [3] (ethyl acetate) was “sparingly soluble”. Further, the Solubility in heptane result in data set [3] (heptane) was “practically insoluble in water and heptane”. Besides, the Solubility in water result in data set [3] (water) is “practically insoluble in water and heptane”. The Hygroscopicity result in data set [4] (DVS adsorption and desorption isotherm) was “Non-hygroscopic”. The “Weight change in DVS” value in data set [4] (relative humidity 5% to 95% RH at 25° C.) is “No significant weight change”.
